The source of these data is PMC8083904 (ACS infectious diseases, 2020).

The target in assay [1] is T1, MEZ (Mtb malic enzyme) (Mycobacterium tuberculosis, UniProt P9WK25). The settings on record: read-out: Km or K0.5.
The target of assay [2] is T1, MEZ (Mtb malic enzyme).
Assay [3] addresses T1, MEZ (Mtb malic enzyme). This is another data set of the same source.

T1 sequence (P9WK25 whole entry): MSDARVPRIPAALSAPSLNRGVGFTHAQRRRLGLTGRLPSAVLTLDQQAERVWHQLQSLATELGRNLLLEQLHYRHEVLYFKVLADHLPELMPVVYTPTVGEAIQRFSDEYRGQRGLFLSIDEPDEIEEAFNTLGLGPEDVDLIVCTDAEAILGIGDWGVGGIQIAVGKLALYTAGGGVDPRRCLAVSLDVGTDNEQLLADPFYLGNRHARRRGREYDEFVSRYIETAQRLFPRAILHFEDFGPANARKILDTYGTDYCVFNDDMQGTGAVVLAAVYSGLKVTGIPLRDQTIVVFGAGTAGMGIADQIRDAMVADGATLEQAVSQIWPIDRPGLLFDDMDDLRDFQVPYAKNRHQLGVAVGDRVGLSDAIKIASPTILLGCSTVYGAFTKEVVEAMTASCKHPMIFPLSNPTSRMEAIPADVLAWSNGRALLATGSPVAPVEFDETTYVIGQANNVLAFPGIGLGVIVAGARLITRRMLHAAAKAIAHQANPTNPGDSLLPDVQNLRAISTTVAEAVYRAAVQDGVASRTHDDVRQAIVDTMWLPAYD

By Km is commonly meant the substrate concentration at which the rate is half of its maximum. Turning to `O=C(O)C[C@H](O)C(=O)O` [L-malate], the Km at MEZ (Mtb malic enzyme) [1] stood at 18.7 ± 0.5 mM.

In the case of `N[C@@H](CC(=O)O)C(=O)O` [aspartate], on MEZ (Mtb malic enzyme) [2], the “% activity of unmodified control (activation)” value (“% activity … (activation)” below) was “aspartate induced a smaller increase in activity, Figure 3A”.

For `O=C(O)/C=C/C(=O)O` [fumarate], at MEZ (Mtb malic enzyme) [2], the “% activity … (activation)” value was determined as 361%.

With `O=C(O)CC(=O)C(=O)O` [oxaloacetate], the “% activity of control (inhibition)” value on MEZ (Mtb malic enzyme) [3] is given as 61%.

As to `O=C(O)CCC(=O)O` [succinate], the “% activity … (activation)” value at MEZ (Mtb malic enzyme) [2] is listed as 290%.
